Experimental data as given in PMC8185074, “Anchor extension: a structure-guided approach to design cyclic peptides targeting enzyme active sites” (Nature Communications, 2021).
Entries after “also recorded” stand apart in the source; their conditions may differ.

What was measured:
Assay type in all cases: biochemical
HDAC10 = target: T1, HDAC10 (Homo sapiens, UniProt Q969S8); assay: HDAC10 profiling of SHA anchor
T1 sequence (Q969S8 1-669): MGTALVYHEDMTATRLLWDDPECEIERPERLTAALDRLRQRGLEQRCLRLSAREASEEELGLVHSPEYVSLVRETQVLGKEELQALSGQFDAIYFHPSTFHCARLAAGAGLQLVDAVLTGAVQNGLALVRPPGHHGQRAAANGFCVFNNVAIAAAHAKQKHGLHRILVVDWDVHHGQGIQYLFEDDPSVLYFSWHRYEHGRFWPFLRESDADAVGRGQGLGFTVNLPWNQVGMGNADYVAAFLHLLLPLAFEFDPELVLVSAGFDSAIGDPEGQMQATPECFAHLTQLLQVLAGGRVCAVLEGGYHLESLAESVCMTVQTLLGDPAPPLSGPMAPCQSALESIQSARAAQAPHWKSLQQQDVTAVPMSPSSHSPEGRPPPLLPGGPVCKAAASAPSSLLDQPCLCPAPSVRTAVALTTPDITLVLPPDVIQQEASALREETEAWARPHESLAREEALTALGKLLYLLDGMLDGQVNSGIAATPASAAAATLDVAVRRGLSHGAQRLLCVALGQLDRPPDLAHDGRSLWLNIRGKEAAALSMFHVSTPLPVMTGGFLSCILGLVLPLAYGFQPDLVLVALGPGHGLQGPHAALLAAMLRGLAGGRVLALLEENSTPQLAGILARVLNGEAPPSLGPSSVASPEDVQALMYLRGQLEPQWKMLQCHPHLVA
From the text: Supplement 41467_2021_23609_MOESM7_ESM.zip/HDACActivity_RawData.xlsx, sheet "SHA" | column: HDAC10

HDAC5 = HDAC5 (Homo sapiens, UniProt Q9UQL6); assay: HDAC5 profiling of SHA anchor and early peptides
Chain of HDAC5 (Q9UQL6 whole entry): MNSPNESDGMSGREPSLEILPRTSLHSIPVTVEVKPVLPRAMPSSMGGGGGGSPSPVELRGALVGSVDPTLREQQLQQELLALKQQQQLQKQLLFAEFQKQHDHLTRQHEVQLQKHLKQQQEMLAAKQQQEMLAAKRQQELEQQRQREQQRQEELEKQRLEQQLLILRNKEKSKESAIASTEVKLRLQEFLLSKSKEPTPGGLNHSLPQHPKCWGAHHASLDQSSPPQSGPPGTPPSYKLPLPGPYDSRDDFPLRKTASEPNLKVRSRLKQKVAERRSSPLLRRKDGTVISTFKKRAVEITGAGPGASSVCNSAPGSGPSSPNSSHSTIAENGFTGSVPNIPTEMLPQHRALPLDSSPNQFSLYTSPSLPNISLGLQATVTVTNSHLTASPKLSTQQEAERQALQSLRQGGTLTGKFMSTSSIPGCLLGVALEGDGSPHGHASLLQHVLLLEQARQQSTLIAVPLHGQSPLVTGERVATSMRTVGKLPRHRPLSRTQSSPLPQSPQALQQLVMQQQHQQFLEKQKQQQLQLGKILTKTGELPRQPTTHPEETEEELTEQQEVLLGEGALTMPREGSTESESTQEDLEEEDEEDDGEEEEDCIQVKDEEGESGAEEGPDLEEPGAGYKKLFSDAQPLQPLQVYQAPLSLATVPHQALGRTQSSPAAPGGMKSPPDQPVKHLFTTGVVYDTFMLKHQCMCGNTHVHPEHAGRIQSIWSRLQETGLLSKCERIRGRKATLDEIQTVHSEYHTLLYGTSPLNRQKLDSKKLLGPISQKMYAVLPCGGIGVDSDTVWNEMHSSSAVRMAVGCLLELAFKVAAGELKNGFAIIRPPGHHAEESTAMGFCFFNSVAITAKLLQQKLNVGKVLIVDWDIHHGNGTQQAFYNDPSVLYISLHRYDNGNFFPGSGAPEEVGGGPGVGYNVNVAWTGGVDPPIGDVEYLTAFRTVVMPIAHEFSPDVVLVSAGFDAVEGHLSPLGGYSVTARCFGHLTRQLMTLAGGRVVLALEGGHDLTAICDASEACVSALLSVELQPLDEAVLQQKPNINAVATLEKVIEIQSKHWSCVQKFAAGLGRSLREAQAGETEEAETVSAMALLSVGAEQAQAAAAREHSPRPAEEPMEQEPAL

HDAC7 = target: T2, HDAC7 (Homo sapiens, UniProt Q8WUI4); assay: HDAC7 profiling of SHA anchor and early peptides
T2 sequence (Q8WUI4 1-952): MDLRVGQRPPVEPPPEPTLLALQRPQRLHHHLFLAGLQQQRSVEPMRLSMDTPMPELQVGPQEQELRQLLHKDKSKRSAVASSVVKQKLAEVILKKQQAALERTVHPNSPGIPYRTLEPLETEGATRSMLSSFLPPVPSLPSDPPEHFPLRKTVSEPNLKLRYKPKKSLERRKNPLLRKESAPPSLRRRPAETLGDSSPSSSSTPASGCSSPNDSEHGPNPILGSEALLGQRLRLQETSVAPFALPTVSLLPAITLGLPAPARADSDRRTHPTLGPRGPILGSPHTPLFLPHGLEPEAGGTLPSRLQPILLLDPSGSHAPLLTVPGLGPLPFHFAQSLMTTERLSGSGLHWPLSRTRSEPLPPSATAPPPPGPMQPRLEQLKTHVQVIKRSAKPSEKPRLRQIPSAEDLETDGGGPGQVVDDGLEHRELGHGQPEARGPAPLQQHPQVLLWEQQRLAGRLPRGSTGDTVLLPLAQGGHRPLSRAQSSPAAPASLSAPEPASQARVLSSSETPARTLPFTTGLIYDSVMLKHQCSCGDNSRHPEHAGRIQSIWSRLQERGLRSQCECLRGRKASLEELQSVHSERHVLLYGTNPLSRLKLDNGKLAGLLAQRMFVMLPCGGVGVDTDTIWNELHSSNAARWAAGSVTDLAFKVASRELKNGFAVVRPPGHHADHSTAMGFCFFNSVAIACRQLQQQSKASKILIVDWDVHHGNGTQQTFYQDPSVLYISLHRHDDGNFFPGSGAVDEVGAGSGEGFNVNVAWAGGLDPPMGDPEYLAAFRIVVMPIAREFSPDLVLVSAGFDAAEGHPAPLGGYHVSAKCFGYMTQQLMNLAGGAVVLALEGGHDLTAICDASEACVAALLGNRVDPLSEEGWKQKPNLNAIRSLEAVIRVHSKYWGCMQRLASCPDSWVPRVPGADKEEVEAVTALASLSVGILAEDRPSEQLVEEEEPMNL

HDAC10 raw activity signal (HDAC10; Conc. 1.00E-05 M): 78535
HDAC10 raw activity signal (HDAC10; Conc. 1.11E-06 M): 200617
HDAC10 raw activity signal (HDAC10; Conc. 1.23E-07 M): 227566
HDAC10 raw activity signal (HDAC10; Conc. 1.37E-08 M): 231393
HDAC10 raw activity signal (HDAC10; Conc. 1.52E-09 M): 230961
HDAC10 raw activity signal (HDAC10; Conc. 3.33E-06 M): 158362
HDAC10 raw activity signal (HDAC10; Conc. 3.70E-07 M): 217828
HDAC10 raw activity signal (HDAC10; Conc. 4.12E-08 M): 237632
HDAC10 raw activity signal (HDAC10; Conc. 4.57E-09 M): 278288
HDAC10 raw activity signal (HDAC10; Conc. 5.08E-10 M): 236379
HDAC5 raw activity signal (HDAC5; Conc. 1.00E-05 M): 673421
HDAC5 raw activity signal (HDAC5; Conc. 1.11E-06 M): 815210
HDAC5 raw activity signal (HDAC5; Conc. 1.23E-07 M): 790981
HDAC5 raw activity signal (HDAC5; Conc. 1.37E-08 M): 671078
HDAC5 raw activity signal (HDAC5; Conc. 1.52E-09 M): 600695
HDAC5 raw activity signal (HDAC5; Conc. 3.33E-06 M): 650638
HDAC5 raw activity signal (HDAC5; Conc. 3.70E-07 M): 757112
HDAC5 raw activity signal (HDAC5; Conc. 4.12E-08 M): 716396
HDAC5 raw activity signal (HDAC5; Conc. 4.57E-09 M): 610467
HDAC5 raw activity signal (HDAC5; Conc. 5.08E-10 M): 252249
HDAC7 raw activity signal (HDAC7; Conc. 1.00E-05 M): 490633
HDAC7 raw activity signal (HDAC7; Conc. 1.11E-06 M): 609377
HDAC7 raw activity signal (HDAC7; Conc. 1.23E-07 M): 577915
HDAC7 raw activity signal (HDAC7; Conc. 1.37E-08 M): 439997
HDAC7 raw activity signal (HDAC7; Conc. 1.52E-09 M): 431089
HDAC7 raw activity signal (HDAC7; Conc. 3.33E-06 M): 551905
HDAC7 raw activity signal (HDAC7; Conc. 3.70E-07 M): 580293
HDAC7 raw activity signal (HDAC7; Conc. 4.12E-08 M): 536345
HDAC7 raw activity signal (HDAC7; Conc. 4.57E-09 M): 413084
HDAC7 raw activity signal (HDAC7; Conc. 5.08E-10 M): 366480
Compound: N[C@@H](CCCCCS)C(=O)O [SHA, 2S-2-amino-7-sulfanylheptanoic acid]
binding to HDAC5 (HDAC5): not detected binding; also recorded: no binding
binding to HDAC7 (HDAC7): not detected binding; also recorded: no binding
